Measured values: patent publication US10273241B2 (President and Fellows of Harvard College, priority 2013, dated 2019)

Tested on: Human Umbilical Vein Endothelial Cells (HUVECs)
Assay: HUVEC growth inhibition (CellTiter-Blue, 96 h)
Format: cell-based
Conditions: 96 hour treatment
Protocol: HUVECs were plated in triplicate in 96-well plates at a density of 1,000 cells/well in 75 μL. After 24 h, compounds were serially diluted in medium and delivered to cells as 4× solutions in 25 μL (0.1% DMSO final for assay). 96 h after compound addition, CellTiter-Blue (Promega) was added to the wells, plates were incubated at 37° C. for 90 min, and fluorescence (555 nm excitation; 580 nm emission) was detected using a SPECTRAmax M3. IC50 was determined by fitting the data to a four-parameter dose-response curve using GraphPad Prism 5.0.

Compound	inhibition of HUVEC proliferation compared with cortistatin A
C[C@]12CC=C3C=C4[C@@H](O)[C@H](O)[C@@H]([N+](C)(C)[O-])CC45CC[C@]3(O5)[C@@H]1CC[C@@H]2c1ccc2ccncc2c1 [cortistatin A N-oxide, Cortistatin A N-oxide]	equipotent

Tested on: K562
Assay: Cell growth assay, K562 cell line
Format: cell-based, human
Conditions: Homo sapiens, K562, 240 h; day 10; lack of activity is taken as evidence of on-target selectivity
Protocol: (§1) For all other cell lines, compounds were serially diluted in medium and dispensed in triplicate in 96-well plates (0.1% DMSO final for assay) followed by the addition of exponentially growing cells at densities ranging from 5,000 to 30,000 cells/well. Cells were also seeded into 2 additional control wells containing vehicle (0.1% DMSO). After 3 days, the number of viable cells in one of the control wells was counted by hemocytometer or MOXI Z (Orflo) and an equal volume of cells for all wells were split-back with fresh vehicle/compounds such that the resulting seeding density for the control well was 5,000-30,000 cells/well, matching the initial seeding density in that well. This procedure was repeated on day 7 and day 10. % growth was calculated as % growth=100×(total estimated cell number in well−day 0 starting cell number)/(total average vehicle estimated cell number−day 0 starting cell number). To determine the estimated cell number in each well, cells that were counted in the control well were diluted 3-fold for an 8-point dilution series, and transferred to 384-well plates in duplicate, 20 μL per well. Cells in all other wells were diluted 4-fold and transferred to 384-well plates in duplicate, 20 μL per well. 20 μL of CellTiter-Glo (Promega) was subsequently added to all wells and luminescence was detected using a SPECTRAmax M3. The control well dilution series was fit to a linear regression and used as a standard for calculating the estimated cell number for each well. For days 7 and 10, total estimated cell number represents the split-adjusted theoretical cell number.

Compound	GI50 [nM]
C[C@]12CC=C3C=C4CC[C@H](N5CCOCC5)C[C@]45CCC3(O5)[C@@H]1CC[C@@H]2c1ccc2ccncc2c1 [15B, β-morpholine]	> 1000
CN1CCN([C@H]2CCC3=CC4=CC[C@]5(C)[C@@H](c6ccc7ccncc7c6)CC[C@H]5C45CC[C@]3(C2)O5)CC1 [16B, β-N-methylpiperazine]	> 1000
C[C@]12CC=C3C=C4CC[C@H](N5CCC5)C[C@]45CCC3(O5)[C@@H]1CC[C@@H]2c1ccc2ccncc2c1 [18B, β-azetidine]	> 1000
CN(C)[C@H]1CCC2=CC3=CC[C@]4(C)C(c5ccc6ccncc6c5)=CC[C@H]4[C@@]34CC[C@]2(C1)O4 [23B, β-dimethylamine 17,18-unsaturated isoquinoline]	> 1000
C[C@]12CC=C3C=C4CC[C@@H](NS(C)(=O)=O)C[C@]45CCC3(O5)[C@@H]1CC[C@@H]2c1ccc2ccncc2c1 [73A, α-methylsulfonamide]	> 1000
C[C@]12CC=C3C=C4CC[C@H](NS(C)(=O)=O)C[C@]45CCC3(O5)[C@@H]1CC[C@@H]2c1ccc2ccncc2c1 [73B, β-methylsulfonamide]	> 1000
CC1(C)NC(=O)N([C@@H]2CCC3=CC4=CC[C@]5(C)[C@@H](c6ccc7ccncc7c6)CC[C@H]5C45CC[C@]3(C2)O5)C1=O [74A, α-dimethylhydantoin]	> 1000

Tested on: MOLM-14
Assay: Cell growth assay, MOLM-14 AML cell line
Format: cell-based, human
Conditions: Homo sapiens, MOLM-14, 240 h; day 10; cells passaged, fresh compound added on days 3 and 7; read-out: MOL M14 G150 day 10
Protocol: as §1, with “After 3 days, the number of viable cells in one of the control wells was counted by hemocytometer or MOXI Z (Orflo) and an equal volume of cells for all wells were split-back with fresh vehicle/compounds such that the resulting seeding density for the control well was 5,000-30,000 cells/well, matching the initial seeding density in that well. This procedure was repeated on day 7 and day 10. % growth was calculated as % growth=100×(total estimated cell number in well−day 0 starting cell number)/(total average vehicle estimated cell number−day 0 starting cell number).” left out

Compound	GI50 [nM]
C[C@]12CC=C3C=C4CC[C@@H](N5CCOCC5)C[C@]45CCC3(O5)[C@@H]1CC[C@@H]2c1ccc2ccncc2c1 [15A, α-morpholine]	20
C[C@]12CC=C3C=C4CC[C@H](N5CCOCC5)C[C@]45CCC3(O5)[C@@H]1CC[C@@H]2c1ccc2ccncc2c1 [15B, β-morpholine]	12.5
CN1CCN([C@H]2CCC3=CC4=CC[C@]5(C)[C@@H](c6ccc7ccncc7c6)CC[C@H]5C45CC[C@]3(C2)O5)CC1 [16B, β-N-methylpiperazine]	9
C[C@]12CC=C3C=C4CC[C@H](N5CCC5)C[C@]45CCC3(O5)[C@@H]1CC[C@@H]2c1ccc2ccncc2c1 [18B, β-azetidine]	13
C[C@]12CC=C3C=C4CC[C@@H](N5CCCC5)C[C@]45CC[C@]3(O5)[C@@H]1CC[C@@H]2c1ccc2ccncc2c1 [19A, α-pyrrolidine]	5
CN(C)[C@H]1CCC2=CC3=CC[C@]4(C)C(c5ccc6ccncc6c5)=CC[C@H]4[C@@]34CC[C@]2(C1)O4 [23B, β-dimethylamine 17,18-unsaturated isoquinoline]	55
CN[C@@H]1CCC2=CC3=CC[C@]4(C)C(c5ccc6ccncc6c5)CC[C@H]4C34CC[C@]2(C1)O4 (stereo partly drawn) [24A, α-monomethylamine]	18
C[C@]12CC=C3C=C4CC[C@@H](N)CC45CC[C@]3(O5)[C@@H]1CC[C@@H]2c1ccc2ccncc2c1 [62A, α-primaryamine]	5
C[C@]12CC=C3C=C4CC[C@@H](NS(C)(=O)=O)C[C@]45CCC3(O5)[C@@H]1CC[C@@H]2c1ccc2ccncc2c1 [73A, α-methylsulfonamide]	200
C[C@]12CC=C3C=C4CC[C@H](NS(C)(=O)=O)C[C@]45CCC3(O5)[C@@H]1CC[C@@H]2c1ccc2ccncc2c1 [73B, β-methylsulfonamide]	200
CC1(C)NC(=O)N([C@@H]2CCC3=CC4=CC[C@]5(C)[C@@H](c6ccc7ccncc7c6)CC[C@H]5C45CC[C@]3(C2)O5)C1=O [74A, α-dimethylhydantoin]	800

Same assay, conditions: Homo sapiens, MOLM-14; day 7; fresh compound added on day 3; read-out: MOL M14 GI50 day 7

Compound	GI50 [nM]
CN1CCN([C@H]2CCC3=CC4=CC[C@]5(C)[C@@H](c6ccc7ccncc7c6)CC[C@H]5C45CC[C@]3(C2)O5)CC1 [16B, β-N-methylpiperazine]	17
C[C@]12CC=C3C=C4CC[C@H](N5CCC5)C[C@]45CCC3(O5)[C@@H]1CC[C@@H]2c1ccc2ccncc2c1 [18B, β-azetidine]	25

Tested on: SET-2
Assay: Cell growth assay, SET-2 cell line
Format: cell-based
Conditions: Homo sapiens, SET-2, 240 h; read-out: SET-2 GI50 day 10
Protocol: as §1

Compound	GI50 [nM]
C[C@]12CC=C3C=C4CC[C@@H](N5CCOCC5)C[C@]45CCC3(O5)[C@@H]1CC[C@@H]2c1ccc2ccncc2c1 [15A, α-morpholine]	8
C[C@]12CC=C3C=C4CC[C@@H](N5CCCC5)C[C@]45CC[C@]3(O5)[C@@H]1CC[C@@H]2c1ccc2ccncc2c1 [19A, α-pyrrolidine]	0.4
CN[C@@H]1CCC2=CC3=CC[C@]4(C)C(c5ccc6ccncc6c5)CC[C@H]4C34CC[C@]2(C1)O4 (stereo partly drawn) [24A, α-monomethylamine]	0.5
C[C@]12CC=C3C=C4CC[C@@H](N)CC45CC[C@]3(O5)[C@@H]1CC[C@@H]2c1ccc2ccncc2c1 [62A, α-primaryamine]	0.45

Tested on: MV4;11
Assay: Cell growth assay, MV4;11 AML cell line
Format: cell-based, human
Conditions: Homo sapiens, MV4-11, 240 h; day 10; cells passaged, fresh compound added on days 3 and 7; read-out: MV 4;11 GI50 day 10
Protocol: as §1, with “After 3 days, the number of viable cells in one of the control wells was counted by hemocytometer or MOXI Z (Orflo) and an equal volume of cells for all wells were split-back with fresh vehicle/compounds such that the resulting seeding density for the control well was 5,000-30,000 cells/well, matching the initial seeding density in that well. This procedure was repeated on day 7 and day 10. % growth was calculated as % growth=100×(total estimated cell number in well−day 0 starting cell number)/(total average vehicle estimated cell number−day 0 starting cell number).” left out

Compound	GI50 [nM]
C[C@]12CC=C3C=C4CC[C@@H](N5CCOCC5)C[C@]45CCC3(O5)[C@@H]1CC[C@@H]2c1ccc2ccncc2c1 [15A, α-morpholine]	2.5
C[C@]12CC=C3C=C4CC[C@H](N5CCOCC5)C[C@]45CCC3(O5)[C@@H]1CC[C@@H]2c1ccc2ccncc2c1 [15B, β-morpholine]	12
CN1CCN([C@H]2CCC3=CC4=CC[C@]5(C)[C@@H](c6ccc7ccncc7c6)CC[C@H]5C45CC[C@]3(C2)O5)CC1 [16B, β-N-methylpiperazine]	8
C[C@]12CC=C3C=C4CC[C@H](N5CCC5)C[C@]45CCC3(O5)[C@@H]1CC[C@@H]2c1ccc2ccncc2c1 [18B, β-azetidine]	13
C[C@]12CC=C3C=C4CC[C@@H](N5CCCC5)C[C@]45CC[C@]3(O5)[C@@H]1CC[C@@H]2c1ccc2ccncc2c1 [19A, α-pyrrolidine]	1.5
CN(C)[C@H]1CCC2=CC3=CC[C@]4(C)C(c5ccc6ccncc6c5)=CC[C@H]4[C@@]34CC[C@]2(C1)O4 [23B, β-dimethylamine 17,18-unsaturated isoquinoline]	35
CN[C@@H]1CCC2=CC3=CC[C@]4(C)C(c5ccc6ccncc6c5)CC[C@H]4C34CC[C@]2(C1)O4 (stereo partly drawn) [24A, α-monomethylamine]	1
C[C@]12CC=C3C=C4CC[C@@H](N)CC45CC[C@]3(O5)[C@@H]1CC[C@@H]2c1ccc2ccncc2c1 [62A, α-primaryamine]	0.4
C[C@]12CC=C3C=C4CC[C@@H](NS(C)(=O)=O)C[C@]45CCC3(O5)[C@@H]1CC[C@@H]2c1ccc2ccncc2c1 [73A, α-methylsulfonamide]	90
C[C@]12CC=C3C=C4CC[C@H](NS(C)(=O)=O)C[C@]45CCC3(O5)[C@@H]1CC[C@@H]2c1ccc2ccncc2c1 [73B, β-methylsulfonamide]	150
CC1(C)NC(=O)N([C@@H]2CCC3=CC4=CC[C@]5(C)[C@@H](c6ccc7ccncc7c6)CC[C@H]5C45CC[C@]3(C2)O5)C1=O [74A, α-dimethylhydantoin]	400

Same assay, conditions: Homo sapiens, MV4-11; day 7; fresh compound added on day 3; read-out: MV4;11 GI50 day 7

Compound	GI50 [nM]
CN1CCN([C@H]2CCC3=CC4=CC[C@]5(C)[C@@H](c6ccc7ccncc7c6)CC[C@H]5C45CC[C@]3(C2)O5)CC1 [16B, β-N-methylpiperazine]	15
C[C@]12CC=C3C=C4CC[C@H](N5CCC5)C[C@]45CCC3(O5)[C@@H]1CC[C@@H]2c1ccc2ccncc2c1 [18B, β-azetidine]	20

Tested on: Human Umbilical Vein Endothelial Cells (HUVECs)
Assay: not given
Conditions: less potent than cortistatin A; Aoki et al. 2007; cited from earlier work

Compound	potency at inhibiting HUVEC proliferation relative to cortistatin A [fold]
cortistatin J	8

Tested on: not listed separately
Assay: Pharmacokinetic study of 14A in male CD-1 mice
Format: in vivo
Conditions: CD-1, mouse, blood, 3 mg/kg IV
Protocol: For pharmacokinetic studies with (14A), (14A) was formulated in 20% hydroxypropyl-beta-cyclodextrin (HPCD) and male CD-1 mice were given a single dose of 14A at 3 mg/kg i.p. and intravenous (i.v.) and 10 mg/kg oral (p.o.). Prior to dosing, mice were fasted overnight until 4 hours post-dosing. Blood samples were collected at the indicated timepoints and analyzed by HPLC/MS/MS to evaluate the concentration of (14A).

Compound	clearance [mL/min/kg]
CN(C)[C@@H]1CCC2=CC3=CC[C@]4(C)[C@@H](c5ccc6ccncc6c5)CC[C@H]4C34CC[C@]2(C1)O4 [14A, α-dimethylamine]	29

Same assay, conditions: CD-1, mouse, blood, 10 mg/kg PO in 20% HPCD, after 2 hours, read-out: Cmax after oral dosing

Compound	Cmax [ng/mL]
CN(C)[C@@H]1CCC2=CC3=CC[C@]4(C)[C@@H](c5ccc6ccncc6c5)CC[C@H]4C34CC[C@]2(C1)O4 [14A, α-dimethylamine]	255

Same assay, conditions: CD-1, mouse, blood, 10 mg/kg PO in 20% HPCD, read-out: T1/2 after oral dosing (converted)

Compound	half-life [h]
CN(C)[C@@H]1CCC2=CC3=CC[C@]4(C)[C@@H](c5ccc6ccncc6c5)CC[C@H]4C34CC[C@]2(C1)O4 [14A, α-dimethylamine]	~5

Same assay, conditions: CD-1, mouse, blood, 10 mg/kg PO, 24 h, read-out: oral C24 trough concentration

Compound	concentration at 24 h [ng/mL]
CN(C)[C@@H]1CCC2=CC3=CC[C@]4(C)[C@@H](c5ccc6ccncc6c5)CC[C@H]4C34CC[C@]2(C1)O4 [14A, α-dimethylamine]	14.2

Same assay, conditions: CD-1, mouse, blood, ip, 3 mg/kg, 3 mg/kg IP, read-out: IP bioavailability

Compound	bioavailability [%]
CN(C)[C@@H]1CCC2=CC3=CC[C@]4(C)[C@@H](c5ccc6ccncc6c5)CC[C@H]4C34CC[C@]2(C1)O4 [14A, α-dimethylamine]	95

Same assay, conditions: CD-1, mouse, blood, iv, 3 mg/kg, 3 mg/kg IV, read-out: Vss

Compound	Vd [L/kg]
CN(C)[C@@H]1CCC2=CC3=CC[C@]4(C)[C@@H](c5ccc6ccncc6c5)CC[C@H]4C34CC[C@]2(C1)O4 [14A, α-dimethylamine]	11.7

Same assay, conditions: CD-1, mouse, blood, oral, 10 mg/kg, 10 mg/kg PO vs 3 mg/kg IV, read-out: oral bioavailability

Compound	bioavailability [%]
CN(C)[C@@H]1CCC2=CC3=CC[C@]4(C)[C@@H](c5ccc6ccncc6c5)CC[C@H]4C34CC[C@]2(C1)O4 [14A, α-dimethylamine]	44
